From patent US5604234A, “Substituted thiol macrolactam immunomodulators” (Abbott Laboratories, priority 1995, dated 1997)

Test system: human mixed lymphocyte reaction (MLR)
Assay: human mixed lymphocyte reaction (MLR), serum free variation
Type: cell-based
Details: Homo sapiens, Lymphocyte, serum-free medium AIM V, Table 3
Experimental: In vitro Assay of Biological Activity (Serum Free MLR)
The in viitro immunosuppressant activity of the compounds of the present invention can also be determined using a variation of the human mixed lymphocyte reaction (MLR) assay described by Kino, T. et al. in Transplantation Proceedings, XIX(5):36-39, Suppl. 6 (1987). In this assay, the cell culture was performed in a serum-free medium, AIM V (GibcoBRL Life Technologies, Grand Island, N.Y.), instead of the usual RPMI 1640 plus 10% heat-inactivated fetal bovine serum medium. The final cell concentrations of the responder and stimulator peripheral blood mononuclear cells were, respectively, 5×10^5/mL and 2×10^6/mL of cells pooled from four donors.

| IC50 | Compound |
| --- | --- |
| 6.1 nM | CCOC(=O)CC[S+]([O-])[C@H]1CC[C@@H](/C=C(\C)[C@H]2OC(=O)[C@@H]3CCCCN3C(=O)C(=O)[C@]3(O)O[C@H]([C@@H](OC)C[C@@H](C)C/C(C)=C/[C@@H](CC)C(=O)C[C@H](O)[C@H]2C)[C@@H](OC)C[C@H]3C)C[C@H]1OC (stereo partly drawn) [Example 60] |
| 46.4 nM | CCOC(=O)C(C)CSC1CCC(C=C(C)C2OC(=O)C3CCCCN3C(=O)C(=O)C3(O)OC(C(OC)CC(C)CC(C)=CC(CC)C(=O)CC(O)C2C)C(OC)CC3C)CC1OC (stereo not drawn) [Example 41] |
| 6.24 nM | CC[C@@H]1/C=C(\C)C[C@H](C)C[C@H](OC)[C@H]2O[C@@](O)(C(=O)C(=O)N3CCCC[C@H]3C(=O)O[C@H](/C(C)=C/[C@@H]3CC[C@H]([S+]([O-])CCC(=O)N(C)O)[C@H](OC)C3)[C@H](C)[C@@H](O)CC1=O)[C@H](C)C[C@@H]2OC (single isomer, unassigned) [Example 69] |
| 7 nM | CCC1C=C(C)CC(C)CC(OC)C2OC(O)(C(=O)C(=O)N3CCCCC3C(=O)OC(C(C)=CC3CCC(SCCC(=O)N(O)C(C)C)C(OC)C3)C(C)C(O)CC1=O)C(C)CC2OC (stereo not drawn) [Example 26] |
| 1.9 nM | CC[C@@H]1/C=C(\C)C[C@H](C)C[C@H](OC)[C@H]2O[C@@](O)(C(=O)C(=O)N3CCCC[C@H]3C(=O)O[C@H](/C(C)=C/[C@@H]3CC[C@H](SC(=O)Nc4ccccc4)[C@H](OC)C3)[C@H](C)[C@@H](O)CC1=O)[C@H](C)C[C@@H]2OC [Example 94] |
| 9.6 nM | CC[C@@H]1/C=C(\C)C[C@H](C)C[C@H](OC)[C@H]2O[C@@](O)(C(=O)C(=O)N3CCCC[C@H]3C(=O)O[C@H](/C(C)=C/[C@@H]3CC[C@H]([S+]([O-])CC(=O)O)[C@H](OC)C3)[C@H](C)[C@@H](O)CC1=O)[C@H](C)C[C@@H]2OC (single isomer, unassigned) [Example 73] |
| 2.5 nM | CC[C@@H]1/C=C(\C)C[C@H](C)C[C@H](OC)[C@H]2O[C@@](O)(C(=O)C(=O)N3CCCC[C@H]3C(=O)O[C@H](/C(C)=C/[C@@H]3CC[C@H](S(=O)(=O)c4ccc(O)cc4)[C@H](OC)C3)[C@H](C)[C@@H](O)CC1=O)[C@H](C)C[C@@H]2OC [Example 49] |
| 1.8 nM | CC[C@@H]1/C=C(\C)C[C@H](C)C[C@H](OC)[C@H]2O[C@@](O)(C(=O)C(=O)N3CCCC[C@H]3C(=O)O[C@H](/C(C)=C/[C@@H]3CC[C@H]([S+]([O-])CCCO)[C@H](OC)C3)[C@H](C)[C@@H](O)CC1=O)[C@H](C)C[C@@H]2OC (stereo partly drawn) [Example 52] |
| 31.2 nM | CCC1C=C(C)CC(C)CC(OC)C2OC(O)(C(=O)C(=O)N3CCCCC3C(=O)OC(C(C)=CC3CCC(SCCC(=O)OCCCS(=O)(=O)O)C(OC)C3)C(C)C(O)CC1=O)C(C)CC2OC (stereo not drawn) [Example 17] |
| 1.6 nM | CCC1C=C(C)CC(C)CC(OC)C2OC(O)(C(=O)C(=O)N3CCCCC3C(=O)OC(C(C)=CC3CCC(SCC(=O)OC)C(OC)C3)C(C)C(O)CC1=O)C(C)CC2OC (stereo not drawn) [Example 28] |
| 12.7 nM | CCC1C=C(C)CC(C)CC(OC)C2OC(O)(C(=O)C(=O)N3CCCCC3C(=O)OC(C(C)=CC3CCC(SCCC(=O)OC(C)C)C(OC)C3)C(C)C(O)CC1=O)C(C)CC2OC (stereo not drawn) [Example 20] |
| 2.2 nM | CCC1C=C(C)CC(C)CC(OC)C2OC(O)(C(=O)C(=O)N3CCCCC3C(=O)OC(C(C)=CC3CCC(SCCC(=O)OCCN(C)C)C(OC)C3)C(C)C(O)CC1=O)C(C)CC2OC (stereo not drawn) [Example 16] |
| 0.02 nM | CCC1C=C(C)CC(C)CC(OC)C2OC(O)(C(=O)C(=O)N3CCCCC3C(=O)OC(C(C)=CC3CCC(SCCC(N)=O)C(OC)C3)C(C)C(O)CC1=O)C(C)CC2OC (stereo not drawn) [Example 22] |
| 8.2 nM | CCOC(=O)CSC1CCC(C=C(C)C2OC(=O)C3CCCCN3C(=O)C(=O)C3(O)OC(C(OC)CC(C)CC(C)=CC(CC)C(=O)CC(O)C2C)C(OC)CC3C)CC1OC (stereo not drawn) [Example 31] |
| 0.8 nM | CCC1C=C(C)CC(C)CC(OC)C2OC(O)(C(=O)C(=O)N3CCCCC3C(=O)OC(C(C)=CC3CCC(SCCC(=O)NO)C(OC)C3)C(C)C(O)CC1=O)C(C)CC2OC (stereo not drawn) [Example 24] |
| 0.2 nM | CC[C@@H]1/C=C(\C)C[C@H](C)C[C@H](OC)[C@H]2O[C@@](O)(C(=O)C(=O)N3CCCC[C@H]3C(=O)O[C@H](/C(C)=C/[C@@H]3CC[C@H](SC(=O)N4CCOCC4)[C@H](OC)C3)[C@H](C)[C@@H](O)CC1=O)[C@H](C)C[C@@H]2OC [Example 98] |
| 1.7 nM | CCC1C=C(C)CC(C)CC(OC)C2OC(O)(C(=O)C(=O)N3CCCCC3C(=O)OC(C(C)=CC3CCC(SCCC(=O)OCC(F)(F)F)C(OC)C3)C(C)C(O)CC1=O)C(C)CC2OC (stereo not drawn) [Example 12] |
| 16.4 nM | CCC1C=C(C)CC(C)CC(OC)C2OC(O)(C(=O)C(=O)N3CCCCC3C(=O)OC(C(C)=CC3CCC(SCC(=O)OCCOCc4ccccc4)C(OC)C3)C(C)C(O)CC1=O)C(C)CC2OC (stereo not drawn) [Example 37] |
| 2 nM | CC[C@@H]1/C=C(\C)C[C@H](C)C[C@H](OC)[C@H]2O[C@@](O)(C(=O)C(=O)N3CCCC[C@H]3C(=O)O[C@H](/C(C)=C/[C@@H]3CC[C@H](SC(=O)NCC(=O)N4CCCCC4)[C@H](OC)C3)[C@H](C)[C@@H](O)CC1=O)[C@H](C)C[C@@H]2OC [Example 102] |
| 0.16 nM | CCC1C=C(C)CC(C)CC(OC)C2OC(O)(C(=O)C(=O)N3CCCCC3C(=O)OC(C(C)=CC3CCC(SC(C)=O)C(OC)C3)C(C)C(O)CC1=O)C(C)CC2OC (stereo not drawn) [Example 2] |
| 2 nM | CC[C@@H]1/C=C(\C)C[C@H](C)C[C@H](OC)[C@H]2O[C@@](O)(C(=O)C(=O)N3CCCC[C@H]3C(=O)O[C@H](/C(C)=C/[C@@H]3CC[C@H](SC(=O)[C@@H](C)O)[C@H](OC)C3)[C@H](C)[C@@H](O)CC1=O)[C@H](C)C[C@@H]2OC [Example 124] |
| 14.9 nM | CCC1C=C(C)CC(C)CC(OC)C2OC(O)(C(=O)C(=O)N3CCCCC3C(=O)OC(C(C)=CC3CCC(SCC(C)C(=O)OC)C(OC)C3)C(C)C(O)CC1=O)C(C)CC2OC (stereo not drawn) [Example 40] |
| 2.9 nM | CCC1C=C(C)CC(C)CC(OC)C2OC(O)(C(=O)C(=O)N3CCCCC3C(=O)OC(C(C)=CC3CCC(SCCC(=O)O)C(OC)C3)C(C)C(O)CC1=O)C(C)CC2OC (stereo not drawn) [Example 19] |
| 7.5 nM | CCC1C=C(C)CC(C)CC(OC)C2OC(O)(C(=O)C(=O)N3CCCCC3C(=O)OC(C(C)=CC3CCC(SCC(=O)NO)C(OC)C3)C(C)C(O)CC1=O)C(C)CC2OC (stereo not drawn) [Example 38] |

Same assay, conditions: Lymphocyte, serum-free medium AIM V, Table 3

| Compound | IC50 |
| --- | --- |
| CC[C@@H]1/C=C(\C)C[C@H](C)C[C@H](OC)[C@H]2O[C@@](O)(C(=O)C(=O)N3CCCC[C@H]3C(=O)O[C@H](/C(C)=C/[C@@H]3CC[C@H](SC(=O)NCC(=O)OCC[Si](C)(C)C)[C@H](OC)C3)[C@H](C)[C@@H](O)CC1=O)[C@H](C)C[C@@H]2OC [Example 100] | 5.8 nM |

Same assay, conditions: serum-free medium AIM V, Table 3

| IC50 | Compound |
| --- | --- |
| 2.5 nM | CC[C@@H]1/C=C(\C)C[C@H](C)C[C@H](OC)[C@H]2O[C@@](O)(C(=O)C(=O)N3CCCC[C@H]3C(=O)O[C@H](/C(C)=C/[C@@H]3CC[C@H](SC(=O)C(C)NC(C)=O)[C@H](OC)C3)[C@H](C)[C@@H](O)CC1=O)[C@H](C)C[C@@H]2OC (single isomer, unassigned) [Example 117B] |
| 1.6 nM | CC[C@@H]1/C=C(\C)C[C@H](C)C[C@H](OC)[C@H]2O[C@@](O)(C(=O)C(=O)N3CCCC[C@H]3C(=O)O[C@H](/C(C)=C/[C@@H]3CC[C@H](SCC(C)=NNC(N)=O)[C@H](OC)C3)[C@H](C)[C@@H](O)CC1=O)[C@H](C)C[C@@H]2OC [Example 81B] |
